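Compound exposure: 48 hours, 5 concentrations, 96-well plates. GI50 = concentration required for 50% inhibition of growth.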 Calls of active or inactive are those of the source. Rule as the data show it: active = GI50 up to about 1.1 µM and inactive = higher.
Key:
Experiment in all cases: NCI-60 cell line screen, 48 h
[1] = tested on: NCI-H23
[2] = tested on: A498
[3] = tested on: HOP-62
[4] = tested on: HCT-15
[5] = tested on: SR
[6] = tested on: SNB-75
[7] = tested on: OVCAR-5
[8] = tested on: U-251
[9] = tested on: MDA-MB-435
[10] = tested on: SK-MEL-5
[11] = tested on: OVCAR-8
[12] = tested on: HCC 2998
[13] = tested on: IGROV-1
[14] = tested on: CCRF-CEM
[15] = tested on: NCI-H522
[16] = tested on: SN12C
[17] = tested on: SNB-19
[18] = tested on: NCI-H460
[19] = tested on: SW-620
[20] = tested on: UACC-257

Compound | GI50 [1] | GI50 [2] | GI50 [3] | GI50 [4] | GI50 [5] | GI50 [6] | GI50 [7] | GI50 [8] | GI50 [9] | GI50 [10] | GI50 [11] | GI50 [12] | GI50 [13] | GI50 [14] | GI50 [15] | GI50 [16] | GI50 [17] | GI50 [18] | GI50 [19] | GI50 [20]
Nc1nc(Cl)c(CO)c(NCC2(CO)CC(CCc3ccccc3)C2)n1 (configuration not stated) | 0.0951 µM (active) | 22.2 µM (inactive) | 25.4 µM (inactive) | 20.6 µM | 4.82 µM (inactive) | 16.1 µM (inactive) | 29.2 µM (inactive) | 26.2 µM (inactive) | 11.5 µM (inactive) | 17.3 µM (inactive) | 12.7 µM (inactive) | 33.3 µM (inactive) | > 10 µM (inactive) | 16.5 µM (inactive) | 15.7 µM (inactive) | 31.1 µM (inactive) | 61.5 µM (inactive) | 13.1 µM (inactive) | 19.6 µM (inactive) | 11.4 µM (inactive)
CCN(CC)CCC1CCCCN1CC(=O)N1c2ccccc2NC(=O)CC1C (configuration not stated) | > 100 µM (inactive) | > 100 µM (inactive) | > 100 µM (inactive) | > 100 µM | > 100 µM (inactive) | 0.0933 µM (active) | > 100 µM (inactive) | > 100 µM (inactive) | > 100 µM (inactive) | > 100 µM (inactive) | > 100 µM (inactive) | > 100 µM (inactive) | > 100 µM (inactive) | > 100 µM (inactive) | > 100 µM (inactive) | > 100 µM (inactive) | > 100 µM (inactive) | > 100 µM (inactive) | – | > 100 µM (inactive)
CCOP(=O)(CC1CC(O)(CNc2cc(Cl)nc(N)n2)C1)OCC (configuration not stated) | > 100 µM (inactive) | > 100 µM (inactive) | > 100 µM (inactive) | > 100 µM | > 100 µM (inactive) | > 100 µM (inactive) | > 100 µM (inactive) | > 100 µM (inactive) | > 100 µM (inactive) | > 100 µM (inactive) | > 100 µM (inactive) | > 100 µM (inactive) | > 100 µM (inactive) | > 100 µM (inactive) | > 100 µM (inactive) | > 100 µM (inactive) | – | > 100 µM (inactive) | > 100 µM (inactive) | > 100 µM (inactive)
c1cncc(CSc2ncnc3[nH]cnc23)c1 | > 100 µM (inactive) | > 100 µM (inactive) | > 100 µM (inactive) | > 100 µM | > 100 µM (inactive) | > 100 µM (inactive) | > 100 µM (inactive) | > 100 µM (inactive) | > 100 µM (inactive) | > 100 µM (inactive) | > 100 µM (inactive) | > 100 µM (inactive) | > 100 µM (inactive) | > 100 µM (inactive) | > 100 µM (inactive) | > 100 µM (inactive) | > 100 µM (inactive) | > 100 µM (inactive) | > 100 µM (inactive) | > 100 µM (inactive)
COC(=O)CCC(NC(=O)OC(C)(C)C)C(=O)NC(Cc1ccc(NC(=O)CCCC(C)=O)cc1)C(=O)NC(CCC(=O)OC)C(=O)OC (configuration not stated) | > 100 µM (inactive) | > 100 µM (inactive) | > 100 µM (inactive) | > 100 µM | > 100 µM (inactive) | > 100 µM (inactive) | > 100 µM (inactive) | – | > 100 µM (inactive) | > 100 µM (inactive) | > 100 µM (inactive) | > 100 µM (inactive) | > 100 µM (inactive) | > 100 µM (inactive) | > 100 µM (inactive) | > 100 µM (inactive) | > 100 µM (inactive) | > 100 µM (inactive) | > 100 µM (inactive) | > 100 µM (inactive)
Nc1nnnn1NC(=O)NCCCl | > 10 µM (inactive) | > 10 µM (inactive) | > 10 µM (inactive) | > 10 µM | > 10 µM (inactive) | > 10 µM (inactive) | – | > 10 µM (inactive) | > 10 µM (inactive) | > 10 µM (inactive) | > 10 µM (inactive) | > 10 µM (inactive) | > 10 µM (inactive) | > 10 µM (inactive) | > 10 µM (inactive) | > 10 µM (inactive) | > 10 µM (inactive) | > 10 µM (inactive) | > 10 µM (inactive) | > 10 µM (inactive)
O=c1c2cc([N+](=O)[O-])ccc2oc2nc3n(c(=O)c12)CCCS3 | > 100 µM (inactive) | > 100 µM (inactive) | 40.9 µM (inactive) | > 100 µM | > 100 µM (inactive) | 64.9 µM (inactive) | > 100 µM (inactive) | > 100 µM (inactive) | > 100 µM (inactive) | > 100 µM (inactive) | – | > 100 µM (inactive) | > 100 µM (inactive) | > 100 µM (inactive) | > 100 µM (inactive) | > 100 µM (inactive) | > 100 µM (inactive) | > 100 µM (inactive) | > 100 µM (inactive) | > 100 µM (inactive)
N=C(N)NC(=N)Nc1ccc(S(=O)(=O)O)cc1 | > 100 µM (inactive) | > 100 µM (inactive) | > 100 µM (inactive) | > 100 µM | > 100 µM (inactive) | > 100 µM (inactive) | > 100 µM (inactive) | > 100 µM (inactive) | > 100 µM (inactive) | > 100 µM (inactive) | > 100 µM (inactive) | > 100 µM (inactive) | > 100 µM (inactive) | > 100 µM (inactive) | > 100 µM (inactive) | > 100 µM (inactive) | > 100 µM (inactive) | > 100 µM (inactive) | > 100 µM (inactive) | > 100 µM (inactive)
Cc1c2cccc-2c2cc(O)c3ccccc3c2n1-c1ccc(N(C)C)cc1 | 4.28 µM (inactive) | 17.1 µM (inactive) | 12.2 µM (inactive) | 5.37 µM | 4.63 µM (inactive) | 4.06 µM (inactive) | 10.9 µM (inactive) | 13.2 µM (inactive) | 13.1 µM (inactive) | 11.8 µM (inactive) | 15.9 µM (inactive) | 13 µM (inactive) | 2.59 µM (inactive) | 9.77 µM (inactive) | 14.8 µM (inactive) | 16.1 µM (inactive) | 16.4 µM (inactive) | 15.5 µM (inactive) | 20.7 µM (inactive) | 28.1 µM (inactive)
C=C1C(=O)O[C@@H]2C(=O)[C@@H](C)[C@@H]3C=CC(=O)[C@@]3(C)[C@@H](OC(=O)/C(C)=C\C)[C@H]12 [MULTISTATIN] | 2.88 µM (inactive) | 1.69 µM (inactive) | 11.9 µM (inactive) | 0.284 µM | 0.223 µM (active) | 5.53 µM (inactive) | 2.22 µM (inactive) | 2.43 µM (inactive) | 1.29 µM (inactive) | 1.68 µM (inactive) | 1.73 µM (inactive) | 1.71 µM (inactive) | 1.48 µM (inactive) | 0.168 µM (active) | 0.0883 µM (active) | 1.42 µM (inactive) | 12.9 µM (inactive) | 2.21 µM (inactive) | 0.361 µM (active) | 1.47 µM (inactive)
COC(=O)/C=C(\S/C(=N\n1cc(C(=O)OC)c(C(=O)OC)c1-c1ccc(C)cc1)c1ccc(C)cc1)C(=O)OC | 5.62 µM (inactive) | 12.8 µM (inactive) | 16.9 µM (inactive) | 2.28 µM | 1.16 µM (inactive) | 11.5 µM (inactive) | 6.7 µM (inactive) | 5.66 µM (inactive) | 5.94 µM (inactive) | 13.4 µM (inactive) | 12.9 µM (inactive) | 18.7 µM (inactive) | 7.85 µM (inactive) | 0.34 µM (active) | 1.67 µM (inactive) | 6.18 µM (inactive) | 34 µM (inactive) | 17.7 µM (inactive) | 1.77 µM (inactive) | 4.72 µM (inactive)
CCOC(=O)n1c(=O)nc2c3c(ncn21)Oc1c(c(-c2ccccc2)nn1-c1ccccc1)C3c1ccc(Cl)cc1 (configuration not stated) | 1.69 µM (inactive) | 1.79 µM (inactive) | 1.77 µM (inactive) | 1.18 µM | 1.35 µM (inactive) | 1.91 µM (inactive) | 2.1 µM (inactive) | 1.69 µM (inactive) | 1.67 µM (inactive) | 1.7 µM (inactive) | 1.69 µM (inactive) | 0.631 µM (active) | – | 1.1 µM (active) | 1.73 µM (inactive) | 1.82 µM (inactive) | 1.61 µM (inactive) | 1.68 µM (inactive) | 1.71 µM (inactive) | 1.8 µM (inactive)
C#CCNC(CCCNC(=N)N)C(=O)O (configuration not stated) | > 100 µM (inactive) | > 100 µM (inactive) | > 100 µM (inactive) | > 100 µM | > 100 µM (inactive) | > 100 µM (inactive) | > 100 µM (inactive) | > 100 µM (inactive) | > 100 µM (inactive) | > 100 µM (inactive) | > 100 µM (inactive) | > 100 µM (inactive) | > 100 µM (inactive) | > 100 µM (inactive) | > 100 µM (inactive) | – | > 100 µM (inactive) | > 100 µM (inactive) | > 100 µM (inactive) | > 100 µM (inactive)
O=C(CC(O)(C(F)(F)Cl)C(F)(F)Cl)CC(O)(C(F)(F)Cl)C(F)(F)Cl | 0.975 µM (active) | 2.21 µM (inactive) | 1.98 µM (inactive) | 1.07 µM | 2.65 µM (inactive) | 1.76 µM (inactive) | – | 1.65 µM (inactive) | 1.69 µM (inactive) | 1.25 µM (inactive) | 2.58 µM (inactive) | 1.74 µM (inactive) | 2.17 µM (inactive) | 2.29 µM (inactive) | 1.2 µM (inactive) | 4.65 µM (inactive) | 1.71 µM (inactive) | 1.24 µM (inactive) | 3.36 µM (inactive) | 1.41 µM (inactive)
